Source: US4647574A, “Hypoglycemic hydantoin derivatives” (Nippon Zoki Pharmaceutical Co., Ltd., priority 1984, dated 1987)

Columns and labels:
[1] = system: Blood Glucose; experiment: Hypoglycemic effect (modified method by Dulin et al.); type: in vivo, rat (Sprague-Dawley-strain male); settings: 2 hours; for Blood Glucose Level: glucose-loaded fasted rats, control 134.6 ± 2.8
Method: Groups of 10 Sprague-Dawley-strain male rats (weighing about 250 g each) which had fasted for 18 hours were used for measurement of hypoglycemic effect according to the modified method by Dulin et al. (Dulin et al, Proc. Soc. Expl. Med., 107, 245 (1961)). That is, 0.5 ml/100 g of 20% aqueous solution of glucose was subcutaneously administered into the backs of rats to prevent a decrease in blood glucose level because of the fasting. […] The obtained blood sample was allowed to stand for 30 minutes to complete the coagulation and was centrifuged to obtain the serum. Blood sugar level was measured according to the mutalotase GOD method (Trinder, Ann. Clin. Biochem., vol. 6, p. 24 ([…])).

[2] = system: Serum Triglyceride; experiment: Hypolipidemic effect: serum triglyceride; type: in vivo, rat (Wister strain male); settings: 100 mg/kg oral, 2 hours, fasted rats; for Serum Triglyceride Decrease: vs control; for Serum Triglyceride Level: control 33.5 ± 2.9
Method: (§1) The test drugs were orally administered to groups of 6 Wisterstrain male rats (each weighing approximately 210-250 g) which had fasted for 20 hours. 2 hours later, the serum was obtained in the same manner as described in (2). Serum triglyceride was measured by GPO-p-chlorophenol colorimetric determination (Richard et al., Clinical Chemistry, vol. 24, p. 1343 (1978)) and serum free fatty acid was measured according to the Acyl CoA Synthetase-Acyl CoA Oxidase method (Shimizu, et al., Biochem. Biophys. Res. Commun., vol. 91, p. 108 (1979)).

[3] = system: serum free fatty acid; experiment: Hypolipidemic effect: serum free fatty acid; type: in vivo, rat (Wister strain male); settings: 100 mg/kg oral, 2 hours, fasted rats; for Serum Fatty Acid Decrease: vs control; for Serum Fatty Acid Level: control 0.51 ± 0.44
Method: as §1

[4] = system: excreted sodium; experiment: Diuretic effect: excreted sodium in rats (Lipschitz method); type: in vivo, rat (Long-Evans strain male); settings: 20 mg/kg oral, within 1 day
Method: 20 mg/kg of the compound 1 of the present invention were orally administered to Long-Evans strain male rats (weighing about 130-150 g each), and the total amount of excreted sodium within 1 day was then measured according to the method by Lipschitz (JPFT, Vol. 79, p. 97 (1943)).

[5] = system: sodium in urine; experiment: Diuretic effect: sodium in urine in mice; type: in vivo, mouse; settings: subcutaneous, up until 2 hours after the administration
[6] = system: urine sugar; experiment: Urine sugar in glucose loaded rats; type: in vivo, rat; settings: 200 mg/kg oral
Method: In addition, 200 mg/kg of the compound 1 of the present invention were orally administered to glucose loaded rats and the urine sugar was measured.

[7] = Rattus norvegicus, 50 mg/kg oral, vs control, read-out: Blood Glucose Decrease
[8] = Rattus norvegicus, 200 mg/kg oral, vs control, read-out: Blood Glucose Decrease

| Structure (SMILES) | Blood Glucose Level ([1]; 200 mg/kg oral) [mg/dL] | inhibition in vivo at 200 mg/kg [1, 8] [%] | Serum Triglyceride Decrease [2] [%] | Serum Triglyceride Level [2] [mg/dL] | Serum Fatty Acid Decrease [3] [%] | Serum Fatty Acid Level [3] [mEq/dl] | also measured |
| --- | --- | --- | --- | --- | --- | --- | --- |
| CCCCNC(=O)NS(=O)(=O)c1ccc(C)cc1 [Tolubutamide, reference compound] |  |  |  |  |  |  | Blood Glucose Level ([1]; 50 mg/kg oral): 63.4 ± 4.7 mg/dL; Blood Glucose Level ([1]; 100 mg/kg oral): 53.0 ± 4.5 mg/dL; inhibition in vivo at 50 mg/kg [1, 7]: 52.9%; inhibition in vivo at 100 mg/kg ([1]; Rattus norvegicus, 100 mg/kg oral, vs control, read-out: Blood Glucose Decrease): 60.6% |
| CN1C(=O)NC(=O)C1O (stereo not shown) [compound 1, 5-hydroxy-1-methylhydantoin] | 81.8 ± 4.0 | 39.2 | 68 | 10.7 ± 1.3 | 66 | 0.17 ± 0.01 | Blood Glucose Level ([1]; 25 mg/kg oral): 89.0 ± 4.1 mg/dL; Blood Glucose Level ([1]; 50 mg/kg oral): 87.1 ± 3.3 mg/dL; inhibition in vivo at 25 mg/kg ([1]; Rattus norvegicus, 25 mg/kg oral, vs control, read-out: Blood Glucose Decrease): 33.9%; inhibition in vivo at 50 mg/kg [1, 7]: 35.3%; total amount of excreted sodium, ratio to control group [4]: 1.8 times; increase in the amount of sodium in urine as compared with the control group [5]: 50.5%; urine sugar, difference between medicated and control groups [6]: No difference was found between the medicated and control groups |
| CN1C(=O)NC(O)C1=O (stereo not shown) [compound 2, 5-hydroxy-3-methylhydantoin] | 115.5 ± 3.9 | 14.2 | 59 | 13.8 ± 0.9 | 45 | 0.28 ± 0.04 |  |
| CCN1C(=O)NC(=O)C1O (stereo not shown) [compound 3, 5-hydroxy-1-ethylhydantoin] | 76.0 ± 3.8 | 43.5 |  |  |  |  |  |
| CCCCN1C(=O)NC(=O)C1O (stereo not shown) [compound 4, 5-hydroxy-1-butylhydantoin] | 82.6 ± 3.6 | 38.6 | 54 | 15.3 ± 2.4 | 41 | 0.30 ± 0.01 |  |
| COC1C(=O)NC(=O)N1C (stereo not shown) [compound 5, 5-methoxy-1-methylhydantoin] | 109.4 ± 2.3 | 18.7 |  |  |  |  |  |
| O=C1NC(=O)N(C2CCCC2)C1O (stereo not shown) [compound 15, 5-hydroxy-1-cyclopentylhydantoin] | 85.3 ± 5.9 | 36.6 |  |  |  |  |  |
| O=C1NC(=O)N(C2CCCCC2)C1O (stereo not shown) [compound 16, 5-hydroxy-1-cyclohexylhydantoin] | 89.6 ± 2.7 | 33.4 |  |  |  |  |  |
| CN1CC(=O)NC1=O [compound 23, 1methylhydantoin] | 106.9 ± 3.9 | 20.6 | 45 | 18.5 ± 1.8 | 43 | 0.29 ± 0.01 |  |
